pIC50: −log10 of the molar value.
What was measured:
rat EP1 receptor = target: T1, rat EP1 receptor (Rattus norvegicus, UniProt P70597); experiment: Test for confirmation of EP1 receptor antagonism (inhibition of PGE2-induced increase in intracellular calcium concentration); type: cell-based; conditions: rat EP1 receptor-expressing COS-1 cells; prostaglandin E2 10 nM; fluorescent calcium indicator, FDSS 7000
T1 construct: expressed in transfected cells
T1 sequence (P70597 1-405): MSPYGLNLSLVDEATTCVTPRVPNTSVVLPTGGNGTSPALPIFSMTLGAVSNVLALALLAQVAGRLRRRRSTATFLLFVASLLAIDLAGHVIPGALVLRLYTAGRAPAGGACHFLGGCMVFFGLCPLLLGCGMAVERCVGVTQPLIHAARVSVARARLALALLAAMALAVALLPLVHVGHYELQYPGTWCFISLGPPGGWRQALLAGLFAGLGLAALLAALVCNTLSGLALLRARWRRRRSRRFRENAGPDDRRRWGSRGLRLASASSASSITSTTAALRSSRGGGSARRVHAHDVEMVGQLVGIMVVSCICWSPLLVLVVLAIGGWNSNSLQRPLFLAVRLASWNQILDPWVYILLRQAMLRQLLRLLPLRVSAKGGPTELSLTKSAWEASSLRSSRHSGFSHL
Protocol: Test for Confirmation of EP1 Receptor Antagonism
(1) Preparation of Rat EP1 Expression Vector
Using Rat Kidney BD Marathon-Ready cDNA (Nippon Becton Dickinson Company, Ltd.) as a template, a forward primer shown in (SEQ ID NO:1), and a reverse primer shown in (SEQ ID NO:2), a first run of PCR was carried out using KOD-Plus-Ver 2.0 (Toyobo Co., Ltd.). Further, using this amplification product as a template, a forward primer shown in (SEQ ID NO:3), and a reverse primer shown in (SEQ ID NO:4), a second run of PCR was carried out in the same manner. The amplification product obtained by the second run of PCR was incorporated into a vector (pcDNA3.1 D/V5-His-TOPO (registered trademark), Invitrogen Japan K. K.). By a conventional method, the vector containing this amplification product was introduced to E. coli (One Shot TOP 10 Competent Cells, Invitrogen Corporation) to transform. This transformed E. coli was cultured in an LB agar medium for one day. After the culture, colonies were selected and cultured in an LB liquid medium containing 50 μg/mL of ampicillin. After the culture, the vector was purified using a QIAprep Spin Miniprep Kit (Qiagen K. K.). The base sequence of the insertion site of this vector (SEQ ID NO:5) was compared with the rat EP1 base sequence (Ptger1) registered as Accession No. NM_013100 in publicly-known database (NCBI), and as a result, they all matched except for a single base. Further, the amino acid sequence translated by the base sequence completely matched the amino acid sequence of the rat EP1 receptor registered as an NCBI Accession No. NP_037232. Therefore, it was confirmed that the cloned gene sequence was a base sequence of the rat EP1 receptor and the obtained amino acid sequence was that of the rat EP1 receptor. The pcDNA3.1 D/V5-His-TOPO (registered trademark) to which the nucleic acid shown in (SEQ ID NO:5) had been inserted was taken as a rat EP1-expressing vector.
(2) Preparation of Rat EP1 Receptor-Expressing Cells
COS-1 cells (Dainippon Sumitomo Pharma Co., Ltd.) were cultured until they reached confluence in an incubator at 37° C. under a 5% CO2 gas condition, using a D-MEM liquid medium (high glucose and L-glutamine contained, Invitrogen Corporation) to which a penicillin-streptomycin solution (Invitrogen Corporation, final concentration: 100 U/mL as benzylpenicillin; 100 μg/mL as streptomycin) as an antibiotic, MEM nonessential amino acids (Invitrogen Corporation, final concentration: 0.1 mM), and fetal calf serum (Sanko Junyaku Co., Ltd., final concentration: 10%) were added.
The cells that had reached confluence were stripped with 0.05% trypsin/0.53 mM EDTA.4Na, and resuspended in a D-MEM liquid medium (high glucose and L-glutamine contained, Invitrogen Corporation) to which an MEM nonessential amino acid (final concentration: 0.1 mM) and fetal calf serum (final concentration: 10%) were added. In each well of a Poly D-lysine-coated 96-well microplate (BD BioCoat (registered trademark), Nippon Becton Dickinson Company, Ltd.), this resuspended cell suspension culture was prepared to be 5×10^4 cells/well in 100 μL of the liquid medium, and 100 μL of the cell suspension was seeded on each well. After seeding, the cells were cultured in an incubator at 37° C. under a 5% CO2 gas condition. At a point when the cells for introduction of a rat EP1-expressing vector were adhered (about 2 hours after seeding), introduction of the rat EP1-expressing vector was carried out in the following order.
For introduction of the rat EP1-expressing vector, Lipofectamine 2000 (Invitrogen Japan K. K.) was used. The rat EP1-expressing vector was diluted with OPTI-MEM (registered trademark) I Reduced-Serum Medium (Invitrogen Japan K. K.) to 200 ng/25 μL/well, and at the same time, Lipofectamine 2000 (Invitrogen Japan K. K.) was also diluted with OPTI-MEM (registered trademark) I Reduced-Serum Medium (Invitrogen Japan K. K.) to 0.5 μL/25 μL/well, followed by incubation at room temperature for 5 minutes. […]

[1] = system: Sulprostone-Induced Bladder Contraction; experiment: Inhibitory effect of compound on sulprostone-induced bladder contraction; type: in vivo, rat; conditions: female SD rats, urethane anesthesia, sulprostone 0.3 mg/kg s.c., test agent 1.0 mg/kg intravenously; for Bladder Contraction Inhibition Rate 15 minutes: 15 minutes from administration; for Bladder Contraction Inhibition Rate 60 minutes: 60 minutes from administration
Description: Inhibitory Effect of Compound on Sulprostone-Induced Bladder Contraction
Female SD rats were used. Under urethane anesthesia (1.25 g/kg, administered subcutaneously), a tracheal cannula (Size 8, HIBIKI) and a femoral vein cannula for administration (23 G needle-equipped PESO) were inserted thereinto. The bladder cannula (PESO) was inserted from the bladder apex. The bladder cannula was connected to a three-way stopcock, and then, one was connected to a pressure transducer and the other was connected to a syringe filled with saline. Saline was injected to the bladder at an injection rate of 3.6 mL/hour and the bladder contraction pressure was recorded at the time of injection with a recorder (RECTI-HORITZ-8K, NEC Corporation). After 10 minutes from stabilization of the bladder contraction pressure during urination, sulprostone was administered subcutaneously (0.3 mg/kg). Then, at the time point when the bladder contraction pressure became constant, a test agent was administered intravenously (1.0 mg/kg). An average bladder contraction pressure during the 10 minute period before administration of sulprostone was taken as a baseline (0%). Further, an average bladder contraction pressure during the 10 minute period directly before administration of the test agent was taken as a maximum bladder contraction pressure (100%). The average bladder contraction pressures were measured during 5 minutes before and after at 15 minutes and 60 minutes from administration of the test agent. The ratio of this measured value to the maximum bladder contraction pressure was calculated by the following equation and taken as an average bladder contraction rate after administration of the test agent: (Average Bladder Contraction Rate after Administration of Test Agent (%))=[(Average Bladder Contraction Pressure after Administration of Test Agent)/(Maximum Bladder Contraction Pressure)]×100 EQUATION 1
In addition, the difference between the maximum bladder contraction rate (100%) and the average bladder contraction rate (%) after administration of the test agent was calculated by the following equation and taken as a bladder contraction inhibition rate of the test agent: (Bladder Contraction Inhibition Rate)=100%−(Average Bladder Contraction Rate after Administration of Test Agent (%)) EQUATION 2

| Structure (SMILES) | pIC50 (rat EP1 receptor) | Bladder Contraction Inhibition Rate 15 minutes [1] | Bladder Contraction Inhibition Rate 60 minutes [1] |
| --- | --- | --- | --- |
| Cc1ccc2c(Cc3cccc(C(=O)NS(C)(=O)=O)n3)c(-c3ccccc3)[nH]c2c1 [Example 3-1, N-Methanesulfonyl-6-(6-methyl-2-phenyl-1H-indol-3-ylmethyl)pyridine-2-carboxamide] | 7.48 | 77.3% | 78.2% |
| c1ccc(-c2[nH]c3cc(C4CC4)ccc3c2Cc2cccc(-c3nnn[nH]3)n2)cc1 [Example 5-1, 6-Cyclopropyl-2-phenyl-3-[6-(1H-tetrazol-5-yl)pyridin-2-ylmethyl]-1H-indole] | 7.21 | 82.8% | 91.6% |
| COc1ccc2c(Cc3cccc(-c4nnn[nH]4)n3)c(-c3ccoc3)[nH]c2c1 [Example 5-11, 2-furan-3-yl-6-methoxy-3-[6-(1H-tetrazol-5-yl)pyridin-2-ylmethyl]-1H-indole] | 8.24 | 99.0% | 99.8% |
| O=c1[nH]c(-c2cccc(Cc3c(-c4ccoc4)[nH]c4cc(C5CC5)ccc34)n2)no1 [Example 12-13] | 7.59 | 72.9% | 96.0% |
| CCS(=O)(=O)NC(=O)c1cccc(Cc2c(-c3ccccc3)[nH]c3cc(OC)ccc23)n1 [Example 3-6] | 7.74 | 67.5% | 63.6% |
| COc1ccc2c(Cc3cccc(-c4noc(=O)[nH]4)n3)c(C3(C)CC3)[nH]c2c1 [Example 12-14] | 7.41 | 80.5% | 59.1% |
| COc1cc2[nH]c(C3(C)CC3)c(Cc3cccc(-c4nnn[nH]4)n3)c2cc1Cl [Example 20-3, 5-chloro-6-methoxy-2-(1-methylcyclopropyl)-3-[6-(1H-tetrazol-5-yl)pyridin-2-ylmethyl]-1H-indole] | 7.57 | 71.7% | 50.0% |
| COc1ccc2c(Cc3cccc(-c4nnn[nH]4)n3)c(-c3ccccc3)[nH]c2c1 [Example 5-2, 6-methoxy-2-phenyl-3-[6-(1H-tetrazol-5-yl)pyridin-2-ylmethyl]-1H-indole] | 8.33 | 88.2% | 76.2% |
| COc1ccc2c(Cc3cccc(C(=O)NS(C)(=O)=O)n3)c(-c3ccccc3)[nH]c2c1 [Example 2-1, N-Methanesulfonyl-6-(6-methoxy-2-phenyl-1H-indol-3-ylmethyl)pyridine-2-carboxamide] | 7.57 | 68.3% | 84.0% |
| COc1ccc2c(Cc3cccc(-c4noc(=O)[nH]4)n3)c(-c3ccccc3)[nH]c2c1 [Example 7-1, 3-[6-(6-Methoxy-2-phenyl-1H-indol-3-ylmethyl)pyridin-2-yl]-4,5-dihydro-1,2,4-oxadiazol-5-one] | 7.59 | 66.3% | 83.0% |
| Cc1ccc2c(Cc3cccc(-c4nnn[nH]4)n3)c(-c3ccccc3)[nH]c2c1 [Example 5-3, 6-methyl-2-phenyl-3-[6-(1H-tetrazol-5-yl)pyridin-2-ylmethyl]-1H-indole] | 7.82 | 78.2% | 75.8% |
| CCS(=O)(=O)NC(=O)c1cccc(Cc2c(-c3ccsc3)[nH]c3cc(OC)ccc23)n1 [Example 3-35, N-ethanesulfonyl-6-(6-methoxy-2-thiophen-3-yl-1H-indol-3-ylmethyl)pyridine-2-carboxamide] | 7.34 | 45.9% | 45.1% |
| CS(=O)(=O)NC(=O)c1cccc(Cc2c(-c3ccccc3)[nH]c3cc(C4CC4)ccc23)n1 [Example 2-2, 6-(6-Cyclopropyl-2-phenyl-1H-indol-3-ylmethyl)-N-methanesulfonylpyridine-2-carboxamide] | 7.54 | 90.0% | 70.4% |
| Cc1ccc2c(Cc3cccc(-c4noc(=O)[nH]4)n3)c(-c3ccoc3)[nH]c2c1 [Example 12-11] | 7.43 | 74.9% | 46.7% |

— patent US8815903B2, “Indole derivative and pharmacologically acceptable salt thereof” (Kissei Pharmaceutical Co., Ltd., priority 2011, dated 2014)
